Assay results taken from patent US20230073777A1, “CYCLIC-AMP RESPONSE ELEMENT BINDING PROTEIN (CBP) AND/OR ADENOVIRAL E1A BINDING PROTEIN OF 300 KDA (P300) DEGRADATION COMPOUNDS AND METHODS OF USE” (CULLGEN (SHANGHAI), INC., priority 2019, published 2023).
pIC50: −log10 of the molar value. Like-named read-outs stand apart in the source and are kept apart here.

Tests used:
P300 = P300 (Homo sapiens, UniProt Q09472); test: Immunoblotting of P300 protein levels in LNCaP or 22RV1 cells; assay type: cell-based; set-up: LNCaP or 22RV1 cells that express CBP/P300 proteins were treated with GNE-781 or the bivalent compounds; endogenous in cells; host or cells: LNCaP (clone FGC) or 22RV1 cells; details: read-out: Degradation (10 nM)
Sequence of P300 (Q09472 whole entry): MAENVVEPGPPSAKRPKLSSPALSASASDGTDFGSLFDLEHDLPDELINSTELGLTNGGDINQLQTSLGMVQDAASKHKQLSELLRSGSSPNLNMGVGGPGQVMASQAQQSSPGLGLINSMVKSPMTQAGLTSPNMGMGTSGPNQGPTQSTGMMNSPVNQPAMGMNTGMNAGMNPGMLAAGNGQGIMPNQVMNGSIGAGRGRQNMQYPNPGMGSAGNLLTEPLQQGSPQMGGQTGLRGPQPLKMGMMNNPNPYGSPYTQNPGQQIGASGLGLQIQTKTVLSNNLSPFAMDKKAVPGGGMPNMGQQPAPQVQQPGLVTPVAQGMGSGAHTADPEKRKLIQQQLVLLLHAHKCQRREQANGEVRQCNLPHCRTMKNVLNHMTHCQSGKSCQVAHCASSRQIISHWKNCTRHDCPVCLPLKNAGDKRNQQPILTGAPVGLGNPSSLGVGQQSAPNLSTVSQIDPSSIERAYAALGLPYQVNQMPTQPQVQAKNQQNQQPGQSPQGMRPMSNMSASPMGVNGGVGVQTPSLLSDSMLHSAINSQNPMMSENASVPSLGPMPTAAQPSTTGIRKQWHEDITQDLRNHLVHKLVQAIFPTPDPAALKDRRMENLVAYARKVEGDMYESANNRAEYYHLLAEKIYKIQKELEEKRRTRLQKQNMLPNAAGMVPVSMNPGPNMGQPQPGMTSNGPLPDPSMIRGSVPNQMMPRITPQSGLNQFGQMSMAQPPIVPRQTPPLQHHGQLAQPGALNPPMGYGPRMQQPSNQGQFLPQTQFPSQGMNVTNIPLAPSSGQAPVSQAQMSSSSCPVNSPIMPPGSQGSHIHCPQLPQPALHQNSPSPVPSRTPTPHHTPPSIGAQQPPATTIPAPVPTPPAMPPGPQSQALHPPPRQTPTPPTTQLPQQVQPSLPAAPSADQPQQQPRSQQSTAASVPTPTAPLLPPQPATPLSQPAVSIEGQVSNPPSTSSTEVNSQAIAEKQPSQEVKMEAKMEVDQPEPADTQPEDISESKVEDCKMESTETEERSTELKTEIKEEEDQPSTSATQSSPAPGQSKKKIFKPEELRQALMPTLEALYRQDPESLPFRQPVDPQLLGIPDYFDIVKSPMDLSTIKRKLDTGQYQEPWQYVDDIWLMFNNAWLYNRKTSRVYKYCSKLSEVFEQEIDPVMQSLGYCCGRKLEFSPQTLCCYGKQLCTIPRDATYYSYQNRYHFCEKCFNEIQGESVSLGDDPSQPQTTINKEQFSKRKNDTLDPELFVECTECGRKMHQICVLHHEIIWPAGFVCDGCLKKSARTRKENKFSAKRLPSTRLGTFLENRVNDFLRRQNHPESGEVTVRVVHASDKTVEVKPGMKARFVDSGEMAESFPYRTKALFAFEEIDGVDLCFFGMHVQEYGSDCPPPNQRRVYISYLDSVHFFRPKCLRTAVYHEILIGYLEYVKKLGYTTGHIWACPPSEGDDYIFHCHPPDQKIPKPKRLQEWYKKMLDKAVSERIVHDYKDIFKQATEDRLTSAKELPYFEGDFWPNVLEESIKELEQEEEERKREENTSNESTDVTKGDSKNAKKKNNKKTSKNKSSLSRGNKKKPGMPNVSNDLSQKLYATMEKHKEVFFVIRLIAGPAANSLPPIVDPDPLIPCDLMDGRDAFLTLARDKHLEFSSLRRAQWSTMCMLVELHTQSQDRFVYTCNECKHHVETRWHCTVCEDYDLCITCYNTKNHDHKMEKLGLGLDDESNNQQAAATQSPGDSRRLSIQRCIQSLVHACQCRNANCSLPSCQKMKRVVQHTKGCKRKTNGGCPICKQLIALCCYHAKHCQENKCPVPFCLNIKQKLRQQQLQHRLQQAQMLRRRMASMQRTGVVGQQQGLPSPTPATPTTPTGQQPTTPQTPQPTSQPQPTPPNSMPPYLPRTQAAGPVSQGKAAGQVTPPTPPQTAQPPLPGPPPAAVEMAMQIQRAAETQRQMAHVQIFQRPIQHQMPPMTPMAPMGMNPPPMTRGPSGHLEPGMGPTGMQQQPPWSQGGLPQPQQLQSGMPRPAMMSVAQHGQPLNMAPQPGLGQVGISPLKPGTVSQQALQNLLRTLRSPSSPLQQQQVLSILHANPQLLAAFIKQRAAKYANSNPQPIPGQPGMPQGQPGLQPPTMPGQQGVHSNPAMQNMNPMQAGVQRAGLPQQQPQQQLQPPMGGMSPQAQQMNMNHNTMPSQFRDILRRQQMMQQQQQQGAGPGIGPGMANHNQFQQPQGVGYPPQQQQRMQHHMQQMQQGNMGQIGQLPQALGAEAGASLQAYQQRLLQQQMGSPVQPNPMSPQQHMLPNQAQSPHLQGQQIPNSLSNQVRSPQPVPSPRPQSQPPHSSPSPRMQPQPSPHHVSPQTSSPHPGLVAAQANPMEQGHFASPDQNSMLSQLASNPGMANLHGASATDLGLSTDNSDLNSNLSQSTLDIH
Outline: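 P300/CBP levels quantified by chemiluminescent immunoblot band densitometry, normalized against tubulin or vinculin loading controls. Lysates came from LNCaP or 22RV1 cells exposed to compounds or DMSO vehicle for indicated times.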

LNCaP cells = test: LNCaP cell viability assay (CellTiter-Glo); assay type: cell-based; details: for pIC50: Homo sapiens, 72 h, LNCaP prostate cancer cell viability inhibition, 3 days
Outline: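 Three-day treatment of LNCaP cells (5000 per well) across a 12-point, 3-fold dilution series starting at 10 μM. ATP luminescence (CellTiter-Glo) relative to untreated controls gave dose-response curves fitted nonlinearly for IC50.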

[1] = percentage of inhibition of p300 at 10 nM (Table 3)
[2] = percentage of inhibition of p300 at 10 nM (Table 2)

| Compound | inhibition at 0.01 µM (P300; [1]) | pIC50 (LNCaP cells; CellTiter-Glo (Table 3)) | inhibition at 0.01 µM (P300; [2]) | pIC50 (LNCaP cells; CellTiter-Glo (Table 2)) | viability of LNCaP cells (LNCaP cells; from 10 μM, 12-point 3-fold serial dilution, 3 days (FIG. 4)) |
| --- | --- | --- | --- | --- | --- |
| CNC(=O)N1CCc2c(c(N3CCCc4cc(-c5cnn(C)c5)c(C(F)F)cc43)nn2C2CCN(C(=O)COCCOCC(=O)N[C@H](C(=O)N3C[C@H](O)C[C@H]3C(=O)NCc3ccc(-c4scnc4C)cc3)C(C)(C)C)CC2)C1 [P-066, 3-(7-(Difluoromethyl)-6-(1-methyl-1H-pyrazol-4-yl)-3,4-dihydroquinolin-1(2H)-yl)-1-(1-(2-(2-(2-(((S)-1-((2S,4R)-4-hydroxy-2-((4-(4-methylthiazol-5-yl)benzyl)carbamoyl)pyrrolidin-1-yl)-3,3-dimethyl-1-oxobutan-2-yl)amino)-2-oxoethoxy)ethoxy)acetyl)piperidin-4-yl)-N-methyl-1,4,6,7-tetrahydro-5H-pyrazolo[4,3-c]pyridine-5-carboxamide] | < 20% | 6.87 |  |  |  |
| CNC(=O)N1CCc2c(c(N3CCCc4cc(-c5cnn(CC(=O)NCCOCCOCCOCCC(=O)N[C@H](C(=O)N6C[C@H](O)C[C@H]6C(=O)NCc6ccc(-c7scnc7C)cc6)C(C)(C)C)c5)c(C(F)F)cc43)nn2C2CCOCC2)C1 [P-077, 3-(7-(Difluoromethyl)-6-(1-((S)-17-((2S,4R)-4-hydroxy-2-((4-(4-methylthiazol-5-yl)benzyl)carbamoyl)pyrrolidine-1-carbonyl)-18,18-dimethyl-2,15-dioxo-6,9,12-trioxa-3,16-diazanonadecyl)-1H-pyrazol-4-yl)-3,4-dihydroquinolin-1(2H)-yl)-N-methyl-1-(tetrahydro-2H-pyran-4-yl)-1,4,6,7-tetrahydro-5H-pyrazolo[4,3-c]pyridine-5-carboxamide] | < 20% | < 5.00 |  |  |  |
| CNC(=O)N1CCc2c(c(N3CCCc4cc(-c5cnn(C)c5)c(C(F)F)cc43)nn2C2CCN(C(=O)CCNc3ccc4c(c3)C(=O)N(C3CCC(=O)NC3=O)C4=O)CC2)C1 (stereo not drawn) [P-002, 3-(7-(Difluoromethyl)-6-(1-methyl-1H-pyrazol-4-yl)-3,4-dihydroquinolin-1(2H)-yl)-1-(1-(3-((2-(2,6-dioxopiperidin-3-yl)-1,3-dioxoisoindolin-5-yl)amino)propanoyl)piperidin-4-yl)-N-methyl-1,4,6,7-tetrahydro-5H-pyrazolo[4,3-c]pyridine-5-carboxamide] |  |  | 50 to 80% | 7.38 | dose-dependently suppressed viability |
| CNC(=O)N1CCc2c(c(N3CCCc4cc(-c5cnn(C)c5)c(C(F)F)cc43)nn2C2CCN(C(=O)CCNc3cccc4c3C(=O)N(C3CCC(=O)NC3=O)C4=O)CC2)C1 (stereo not drawn) [P-014, 3-(7-(Difluoromethyl)-6-(1-methyl-1H-pyrazol-4-yl)-3,4-dihydroquinolin-1(2H)-yl)-1-(1-(3-((2-(2,6-dioxopiperidin-3-yl)-1,3-dioxoisoindolin-4-yl)amino)propanoyl)piperidin-4-yl)-N-methyl-1,4,6,7-tetrahydro-5H-pyrazolo[4,3-c]pyridine-5-carboxamide] |  |  | < 20% | < 5.00 |  |

More lines, main results first:

| inhibition at 0.01 µM (P300; [1]) | pIC50 (LNCaP cells; CellTiter-Glo (Table 3)) | inhibition at 0.01 µM (P300; [2]) | pIC50 (LNCaP cells; CellTiter-Glo (Table 2)) | Compound | viability of LNCaP cells (LNCaP cells; from 10 μM, 12-point 3-fold serial dilution, 3 days (FIG. 4)) |
| --- | --- | --- | --- | --- | --- |
| < 20% | 6.98 |  |  | CNC(=O)N1CCc2c(c(N3CCCc4cc(-c5cnn(C)c5)c(C(F)F)cc43)nn2C2CCN(C(=O)CCOCCOCCNc3cccc4c3C(=O)N(C3CCC(=O)NC3=O)C4=O)CC2)C1 (stereo not drawn) [P-052, 3-(7-(Difluoromethyl)-6-(1-methyl-1H-pyrazol-4-yl)-3,4-dihydroquinolin-1(2H)-yl)-1-(1-(3-(2-(2-((2-(2,6-dioxopiperidin-3-yl)-1,3-dioxoisoindolin-4-yl)amino)ethoxy)ethoxy)propanoyl)piperidin-4-yl)-N-methyl-1,4,6,7-tetrahydro-5H-pyrazolo[4,3-c]pyridine-5-carboxamide] |  |
| > 80% | 8.26 |  |  | CNC(=O)N1CCc2c(c(N3CCCc4cc(-c5cnn(C)c5)c(C(F)F)cc43)nn2C2CCN(C(=O)CCCCCOc3cccc4c3CN(C3CCC(=O)NC3=O)C4=O)CC2)C1 (stereo not drawn) [P-088, 3-(7-(difluoromethyl)-6-(1-methyl-1H-pyrazol-4-yl)-3,4-dihydroquinolin-1(2H)-yl)-1-(1-(6-((2-(2,6-dioxopiperidin-3-yl)-1-oxoisoindolin-4-yl)oxy)hexanoyl)piperidin-4-yl)-N-methyl-1,4,6,7-tetrahydro-5H-pyrazolo[4,3-c]pyridine-5-carboxamide] |  |
| > 80% | 7.03 |  |  | CC(=O)N1CCc2c(c(N3CCCc4cc(-c5cnn(C)c5)c(C(F)F)cc43)nn2C2CCN(C(=O)CCCCNc3ccc4c(c3)n(C)c(=O)n4C3CCC(=O)NC3=O)CC2)C1 (stereo not drawn) [P-126, 3-(5-((5-(4-(5-Acetyl-3-(7-(difluoromethyl)-6-(1-methyl-1H-pyrazol-4-yl)-3,4-dihydroquinolin-1(2H)-yl)-4,5,6,7-tetrahydro-1H-pyrazolo[4,3-c]pyridin-1-yl)piperidin-1-yl)-5-oxopentyl)amino)-3-methyl-2-oxo-2,3-dihydro-1H-benzo[d]imidazol-1-yl)piperidine-2,6-dione] |  |
| 20 to 50% | 7.54 |  |  | CNC(=O)N1CCc2c(c(N3CCCc4cc(-c5cnn(C)c5)c(C(F)F)cc43)nn2C2CCN(C(=O)CCCCCCCCCC(=O)N[C@H](C(=O)N3C[C@H](O)C[C@H]3C(=O)NCc3ccc(-c4scnc4C)cc3)C(C)(C)C)CC2)C1 [P-063, 3-(7-(Difluoromethyl)-6-(1-methyl-1H-pyrazol-4-yl)-3,4-dihydroquinolin-1(2H)-yl)-1-(1-(11-(((S)-1-((2S,4R)-4-hydroxy-2-((4-(4-methylthiazol-5-yl)benzyl)carbamoyl)pyrrolidin-1-yl)-3,3-dimethyl-1-oxobutan-2-yl)amino)-11-oxoundecanoyl)piperidin-4-yl)-N-methyl-1,4,6,7-tetrahydro-5H-pyrazolo[4,3-c]pyridine-5-carboxamide] |  |
| 20 to 50% | 7.25 |  |  | CNC(=O)N1CCc2c(c(N3CCCc4cc(-c5cnn(C)c5)c(C(F)F)cc43)nn2C2CCN(C(=O)CCCCC#Cc3cccc4c3C(=O)N(C3CCC(=O)NC3=O)C4=O)CC2)C1 (stereo not drawn) [P-092, 3-(7-(Difluoromethyl)-6-(1-methyl-1H-pyrazol-4-yl)-3,4-dihydroquinolin-1(2H)-yl)-1-(1-(7-(2-(2,6-dioxopiperidin-3-yl)-1,3-dioxoisoindolin-4-yl)hept-6-ynoyl)piperidin-4-yl)-N-methyl-1,4,6,7-tetrahydro-5H-pyrazolo[4,3-c]pyridine-5-carboxamide] |  |
| < 20% | 7.50 |  |  | CNC(=O)N1CCc2c(c(N3CCCc4cc(-c5cnn(C)c5)c(C(F)F)cc43)nn2C2CCN(C(=O)CCOCCOCCOCCOCCC(=O)N[C@H](C(=O)N3C[C@H](O)C[C@H]3C(=O)NCc3ccc(-c4scnc4C)cc3)C(C)(C)C)CC2)C1 [P-070, 3-(7-(Difluoromethyl)-6-(1-methyl-1H-pyrazol-4-yl)-3,4-dihydroquinolin-1(2H)-yl)-1-(1-((S)-18-((2S,4R)-4-hydroxy-2-((4-(4-methylthiazol-5-yl)benzyl)carbamoyl)pyrrolidine-1-carbonyl)-19,19-dimethyl-16-oxo-4,7,10,13-tetraoxa-17-azaicosanoyl)piperidin-4-yl)-N-methyl-1,4,6,7-tetrahydro-5H-pyrazolo[4,3-c]pyridine-5-carboxamide] |  |
